≈ marks a conversion by molar mass, not a printed value.
Tests used:
Type in all cases: cell-based
[1] = test system: Neisseria gonorrhoeae isolate 191; assay: MIC broth microdilution, initial screening against N. gonorrhoeae isolate 191; settings: 24 hours, 37° C., 5% CO2
Procedure: (§1) The minimum inhibitory concentrations (MICs) of the tested compounds and control drugs; Azithromycin, Cefixime and Tetracycline (antibiotics) were determined using the broth microdilution method as described in previous reports with minor modifications against clinically-relevant Neisseria gonorrhea strains. Strains were grown on Brucella broth supplemented with yeast extract, neopeptone, hematin, pyridoxal and NAD at 37° C. for 24 hours in presence of 5% CO2. […] Compounds and control drugs were added in the first row of the 96-well plates and serially diluted with media containing bacteria. Plates were then, incubated aerobically at 37° C. in the presence of 5% CO2 for 24 hours.

[2] = test system: Neisseria gonorrhoeae 194; assay: MIC broth microdilution, N. gonorrhoeae 194
Procedure: as §1

[3] = test system: Neisseria gonorrhoeae 172; assay: MIC broth microdilution, N. gonorrhoeae 172
Procedure: as §1

[4] = test system: Neisseria gonorrhoeae 188; assay: MIC broth microdilution, N. gonorrhoeae 188
Procedure: as §1

[5] = test system: Neisseria gonorrhoeae 178; assay: MIC broth microdilution, N. gonorrhoeae 178
Procedure: as §1

[6] = test system: Neisseria gonorrhoeae 175; assay: MIC broth microdilution, N. gonorrhoeae 175
Procedure: as §1

[7] = test system: Neisseria gonorrhoeae 171; assay: MIC broth microdilution, N. gonorrhoeae 171
Procedure: as §1

[8] = test system: Neisseria gonorrhoeae 170; assay: MIC broth microdilution, N. gonorrhoeae 170
Procedure: as §1

[9] = test system: Neisseria gonorrhoeae 169; assay: MIC broth microdilution, N. gonorrhoeae 169
Procedure: as §1

[10] = test system: Neisseria gonorrhoeae 167; assay: MIC broth microdilution, N. gonorrhoeae 167
Procedure: as §1

[11] = test system: Neisseria gonorrhoeae 166; assay: MIC broth microdilution, N. gonorrhoeae 166
Procedure: as §1

[12] = test system: Neisseria gonorrhoeae 165; assay: MIC broth microdilution, N. gonorrhoeae 165
Procedure: as §1

[13] = test system: Neisseria gonorrhoeae 202; assay: MIC broth microdilution, N. gonorrhoeae 202
Procedure: as §1

[14] = test system: Neisseria gonorrhoeae 214; assay: MIC broth microdilution, N. gonorrhoeae 214
Procedure: as §1

Row | Compound | MIC (Minimum inhibitory concentration) [1] | MIC [2] [µg/mL] | MIC [3] [µg/mL] | MIC [4] [µg/mL] | MIC [5] [µg/mL] | MIC [6] [µg/mL] | MIC [7] [µg/mL] | MIC [8] [µg/mL] | MIC [9] [µg/mL] | MIC [10] [µg/mL] | MIC [11] [µg/mL] | MIC [12] [µg/mL] | MIC [13] [µg/mL] | MIC [14] [µg/mL]
1 | CC[C@H]1OC(=O)[C@H](C)[C@@H](O[C@H]2C[C@@](C)(OC)[C@@H](O)[C@H](C)O2)[C@H](C)[C@@H](O[C@@H]2O[C@H](C)C[C@H](N(C)C)[C@H]2O)[C@](C)(O)C[C@@H](C)CN(C)[C@H](C)[C@@H](O)[C@]1(C)O [Azithromycin] | >128 | 1 (≈ 1.34 µM) | > 128 | 2 (≈ 2.67 µM) | 1 (≈ 1.34 µM) | 16 (≈ 21.4 µM) | 0.25 (≈ 0.334 µM) | 1 (≈ 1.34 µM) | 1 (≈ 1.34 µM) | 16 (≈ 21.4 µM) | 2 (≈ 2.67 µM) | 1 (≈ 1.34 µM) | 32 (≈ 42.7 µM) | 0.5 (≈ 0.668 µM)
2 | C=CC1=C(C(=O)O)N2C(=O)[C@@H](NC(=O)/C(=N\OCC(=O)O)c3csc(N)n3)[C@H]2SC1 [Cefixime] | 0.06 | 1 (≈ 2.21 µM) | 0.06 (≈ 0.132 µM) | 0.25 (≈ 0.551 µM) | 0.25 (≈ 0.551 µM) | 0.03 (≈ 0.0662 µM) | 0.25 (≈ 0.551 µM) | 0.25 (≈ 0.551 µM) | 0.25 (≈ 0.551 µM) | 0.06 (≈ 0.132 µM) | 0.5 (≈ 1.1 µM) | 0.25 (≈ 0.551 µM) | 0.03 (≈ 0.0662 µM) | 0.25 (≈ 0.551 µM)
3 | CN(C)[C@@H]1C(O)=C(C(N)=O)C(=O)[C@@]2(O)C(O)=C3C(=O)c4c(O)cccc4[C@@](C)(O)[C@H]3C[C@@H]12 [Tetracycline] | 1 | 1 (≈ 2.25 µM) | 1 (≈ 2.25 µM) | 2 (≈ 4.5 µM) | 16 (≈ 36 µM) | 1 (≈ 2.25 µM) | 2 (≈ 4.5 µM) | 4 (≈ 9 µM) | 4 (≈ 9 µM) | 1 (≈ 2.25 µM) | 2 (≈ 4.5 µM) | 8 (≈ 18 µM) | 1 (≈ 2.25 µM) | 4 (≈ 9 µM)

From patent publication US20250339401A1, “METHODS AND MATERIALS FOR TREATMENT OF NEISSERIA GONORRHOEAE INFECTION” (Purdue Research Foundation, priority 2021, published 2025)
